Results published in ChEMBL document CHEMBL1201862, “PubChem BioAssay data set” (2004).
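Five compound concentrations were applied to cells in 96-well plates for 48 hours; endpoints were derived by simple linear interpolation of the resulting dose-response curve. GI50 = concentration required for 50% inhibition of growth.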 Active and inactive are the calls of the source. Cut-off read from the data, not from the text of the source: active = GI50 up to about 1.1 µM and inactive = higher.

How the values were obtained:
Assay in all cases: NCI anticancer screen, dose series, 48 h
786-0 = test system: 786-0
A549 = test system: A549
ACHN = test system: ACHN
BT-549 = test system: BT-549
CAKI-1 = test system: CAKI-1
CCRF-CEM = test system: CCRF-CEM
COLO 205 = test system: COLO 205
DU-145 = test system: DU-145
EKVX = test system: EKVX
HCC 2998 = test system: HCC 2998
HCT-116 = test system: HCT-116
HCT-15 = test system: HCT-15
HL-60 = test system: HL-60
HOP-62 = test system: HOP-62
HOP-92 = test system: HOP-92
HT-29 = test system: HT-29
Hs-578T = test system: Hs-578T
IGROV-1 = test system: IGROV-1
K562 = test system: K562
KM12 = test system: KM12
LOX IMVI = test system: LOX IMVI
M14 = test system: M14
MCF7 = test system: MCF7
MDA-MB-231 = test system: MDA-MB-231
MDA-MB-435 = test system: MDA-MB-435
MDA-N = test system: MDA-N
MOLT-4 = test system: MOLT-4
Malme-3M = test system: Malme-3M
NCI-H226 = test system: NCI-H226
NCI-H23 = test system: NCI-H23
NCI-H460 = test system: NCI-H460
NCI-H522 = test system: NCI-H522
NCI/ADR-RES = test system: NCI/ADR-RES
OVCAR-3 = test system: OVCAR-3
OVCAR-4 = test system: OVCAR-4
OVCAR-5 = test system: OVCAR-5
OVCAR-8 = test system: OVCAR-8
PC-3 = test system: PC-3
RPMI-8226 = test system: RPMI-8226
RXF 393 = test system: RXF 393
SF-268 = test system: SF-268
SF-295 = test system: SF-295
SF-539 = test system: SF-539
SK-MEL-28 = test system: SK-MEL-28
SK-MEL-2 = test system: SK-MEL-2
SK-MEL-5 = test system: SK-MEL-5
SK-OV-3 = test system: SK-OV-3
SN12C = test system: SN12C
SNB-19 = test system: SNB-19
SNB-75 = test system: SNB-75
SR = test system: SR
SW-620 = test system: SW-620
T47D = test system: T47D
TK-10 = test system: TK-10
U-251 = test system: U-251
UACC-257 = test system: UACC-257
UACC-62 = test system: UACC-62
UO-31 = test system: UO-31
A498 = test system: A498

For `CCCCCCCCCCCCCCCCNc1ccc2c(c1)OCCOCCOCCOCCO2`, the GI50 (786-0) was 3.64 µM (inactive), the GI50 (A549) was 3.78 µM (inactive) and the GI50 (ACHN) was 3.05 µM (inactive). The GI50 (BT-549) was 3.44 µM (inactive), the GI50 (CAKI-1) was 4 µM (inactive) and the GI50 (CCRF-CEM) was 2.19 µM (inactive). For the same compound, the GI50 (COLO 205) was 1.75 µM (inactive), the GI50 (DU-145) was 4.24 µM (inactive) and the GI50 (EKVX) was 4.03 µM (inactive). The GI50 (HCC 2998) was 4.03 µM (inactive), the GI50 (HCT-116) was 3.04 µM (inactive) and the GI50 (HCT-15) was 2.88 µM. For the same compound, the GI50 (HL-60) was 2.07 µM (inactive), the GI50 (HOP-62) was 2.51 µM (inactive) and the GI50 (HOP-92) was 2.37 µM (inactive). For the same compound, the GI50 (HT-29) was 2.75 µM (inactive), the GI50 (Hs-578T) was 2.82 µM (inactive) and the GI50 (IGROV-1) was 2.91 µM (inactive). The GI50 (K562) was 4.2 µM (inactive), the GI50 (KM12) was 2.06 µM (inactive) and the GI50 (LOX IMVI) was 2.24 µM (inactive). For the same compound, the GI50 (M14) was 3.79 µM (inactive), the GI50 (MCF7) was 3.61 µM (inactive) and the GI50 (MDA-MB-231) was 2.91 µM (inactive). For the same compound, the GI50 (MDA-MB-435) was 3.17 µM (inactive), the GI50 (MDA-N) was 3.14 µM (inactive) and the GI50 (MOLT-4) was 2.5 µM (inactive). For the same compound, the GI50 (Malme-3M) was 3.56 µM (inactive), the GI50 (NCI-H226) was 1.77 µM (inactive) and the GI50 (NCI-H23) was 3.62 µM (inactive). For the same compound, the GI50 (NCI-H460) was 3.1 µM (inactive), the GI50 (NCI-H522) was 2.33 µM (inactive) and the GI50 (NCI/ADR-RES) was 2.37 µM (inactive). For the same compound, the GI50 (OVCAR-3) was 2.71 µM (inactive), the GI50 (OVCAR-4) was 4.02 µM (inactive) and the GI50 (OVCAR-5) was 3.61 µM (inactive). For the same compound, the GI50 (OVCAR-8) was 2.68 µM (inactive), the GI50 (PC-3) was 2.2 µM (inactive) and the GI50 (RPMI-8226) was 1.67 µM (inactive). For the same compound, the GI50 (RXF 393) was 2.3 µM (inactive), the GI50 (SF-268) was 3.76 µM (inactive) and the GI50 (SF-295) was 2.33 µM (inactive). For the same compound, the GI50 (SF-539) was 2.32 µM (inactive), the GI50 (SK-MEL-28) was 6.28 µM (inactive) and the GI50 (SK-MEL-2) was 2.25 µM (inactive). For the same compound, the GI50 (SK-MEL-5) was 2.25 µM (inactive), the GI50 (SK-OV-3) was 3.4 µM (inactive) and the GI50 (SN12C) was 2.92 µM (inactive). For the same compound, the GI50 (SNB-19) was 3.37 µM (inactive), the GI50 (SNB-75) was 3.92 µM (inactive) and the GI50 (SR) was 3.29 µM (inactive). For the same compound, the GI50 (SW-620) was 3.37 µM (inactive), the GI50 (T47D) was 3.11 µM (inactive) and the GI50 (TK-10) was 11.7 µM (inactive). The GI50 (U-251) was 2.49 µM (inactive), the GI50 (UACC-257) was 2.56 µM (inactive) and the GI50 (UACC-62) was 2.97 µM (inactive). For the same compound, the GI50 (UO-31) was 2.77 µM (inactive).
With `Cc1c(C)c2c(c(N)c1C#N)C(=O)N(Cc1ccc(S(N)(=O)=O)cc1)C2=O` the GI50 (786-0) was 16.8 µM (inactive), the GI50 (A498) was 27.9 µM (inactive) and the GI50 (A549) was > 58.6 µM (inactive). The GI50 (ACHN) was > 42.6 µM (inactive), the GI50 (BT-549) was 19.4 µM (inactive) and the GI50 (CAKI-1) was > 100 µM (inactive). For the same compound, the GI50 (CCRF-CEM) was > 100 µM (inactive), the GI50 (COLO 205) was > 100 µM (inactive) and the GI50 (DU-145) was 32.1 µM (inactive). For the same compound, the GI50 (EKVX) was > 45 µM (inactive), the GI50 (HCC 2998) was > 100 µM (inactive) and the GI50 (HCT-116) was 32.9 µM (inactive). For the same compound, the GI50 (HCT-15) was greater than 72.9 µM, the GI50 (HL-60) was > 100 µM (inactive) and the GI50 (HOP-62) was 4.07 µM (inactive). For the same compound, the GI50 (HOP-92) was 13.6 µM (inactive), the GI50 (HT-29) was > 100 µM (inactive) and the GI50 (Hs-578T) was > 46.3 µM (inactive). For the same compound, the GI50 (IGROV-1) was > 38.4 µM (inactive), the GI50 (K562) was > 100 µM (inactive) and the GI50 (KM12) was > 100 µM (inactive). The GI50 (LOX IMVI) was 64.6 µM (inactive), the GI50 (M14) was 25.9 µM (inactive) and the GI50 (MCF7) was > 75 µM (inactive). The GI50 (MDA-MB-231) was 19.7 µM (inactive), the GI50 (MDA-MB-435) was > 100 µM (inactive) and the GI50 (MDA-N) was > 100 µM (inactive). The GI50 (MOLT-4) was > 100 µM (inactive), the GI50 (Malme-3M) was 20.5 µM (inactive) and the GI50 (NCI-H226) was > 30.5 µM (inactive). For the same compound, the GI50 (NCI-H23) was 18.9 µM (inactive), the GI50 (NCI-H460) was > 100 µM (inactive) and the GI50 (NCI/ADR-RES) was > 57.9 µM (inactive). For the same compound, the GI50 (OVCAR-3) was > 41.5 µM (inactive), the GI50 (OVCAR-4) was > 100 µM (inactive) and the GI50 (OVCAR-5) was 24.3 µM (inactive). The GI50 (OVCAR-8) was 4.65 µM (inactive), the GI50 (PC-3) was > 64 µM (inactive) and the GI50 (RPMI-8226) was > 100 µM (inactive). For the same compound, the GI50 (RXF 393) was 7.46 µM (inactive), the GI50 (SF-268) was 16.5 µM (inactive) and the GI50 (SF-295) was 21.5 µM (inactive). For the same compound, the GI50 (SF-539) was > 34.4 µM (inactive), the GI50 (SK-MEL-28) was > 100 µM (inactive) and the GI50 (SK-MEL-2) was > 50.1 µM (inactive). For the same compound, the GI50 (SK-MEL-5) was > 100 µM (inactive), the GI50 (SK-OV-3) was 4.43 µM (inactive) and the GI50 (SN12C) was > 53.8 µM (inactive). For the same compound, the GI50 (SNB-19) was 5.51 µM (inactive), the GI50 (SNB-75) was > 35.9 µM (inactive) and the GI50 (SR) was > 100 µM (inactive). The GI50 (SW-620) was > 100 µM (inactive), the GI50 (T47D) was > 39.2 µM (inactive) and the GI50 (TK-10) was 22.4 µM (inactive). The GI50 (U-251) was 7.18 µM (inactive), the GI50 (UACC-257) was > 100 µM (inactive) and the GI50 (UACC-62) was > 100 µM (inactive). For the same compound, the GI50 (UO-31) was 97.9 µM (inactive).
